Data on one compound can be found in paper PMC4336331, “Novel Receptor-Derived Cyclopeptides to Treat Heart Failure Caused by Anti-β1-Adrenoceptor Antibodies in a Human-Analogous Rat Model” (PLoS ONE, 2015).

Peptide text beside a SMILES is read from it. Bounds are passed on as bounds.

For one experiment, the system named is anti-β1EC2-antibodies. In words: Free anti-β1EC2-titers by ELISA, prevention-study. The experiment is classed as in vivo, Lewis/CrlBR rats. As to conditions: 1.0 mg/kg i.v. monthly. As for the experimental part: For treatment groups (a), (b), and (f) in total n = 38 non-immunised rats were injected with 0.9% NaCl and treated in parallel (“negative” controls). Blood was taken at regular intervals; rat-IgG was prepared by caprylic acid precipitation and assayed for reactivity by ELISA or competition-ELISA against linear peptides corresponding to the human β1EC2-sequence (AA199-223)[12], and by immuno-fluorescence microscopy with human embryonic kidney (HEK)293 cells stably expressing 0.4 pmol β1-AR/mg membrane protein (HEKβ1-cells). Specificity of the anti-β1EC2-abs was confirmed by co-localisation experiments using previously characterised N-terminal rabbit anti-β1-abs. Bound antibodies were detected with appropriate species-specific secondary antibodies (Dianova, Hamburg, Germany; anti-rabbit-, or anti-rat-Fab2, conjugated to Cy2 or Cy3). Calibrated rat-IgG (Dianova) served to quantify specific IgG-antibodies.
Fig 2 Study protocol and cardioprotection with cyclic β1EC2-peptides. Flow charts of the (A) prevention- and (E) therapy-study with β1EC2-mimicking peptides in the rat. Numbers given refer to animal-numbers in the respective study-groups. Immunisation with β1EC2/GST-FP (or 0.9% NaCl for controls) was started at t = 0. […] Titers were measured before and 24h after CP-injection. […] For better readability error-bars are not shown in the graph. […]
A general note: ELISA stands for enzyme-linked immunosorbent assay.

Another experiment has as its system GRK2 and GRK5. In words: qRT-PCR of cardiac GRK expression, therapy-study. The experiment is classed as in vivo, Lewis/CrlBR rats. As to conditions: qRT-PCR normalised to GAPDH (Fig. 4C).
For experiment [1], the system named is functional β1EC2-specific memory B-cells. In words: Adoptive B-cell transfer and suboptimal immunisation. The experiment is classed as in vivo, Lewis rats. Conditions: purified B-cells from immunised treated donors into antigen-naïve recipients, then 12.5μg β1EC2/GST-FP in adjuvans (Fig. 5M). The method, then: (d) To detect functional β 1 EC2-specific memory B-cells in vivo, B-cells were first purified from total splenocytes by negative depletion using mAb V65, R73, 10/78 and WT.5 plus magnetic beads (MACS, Miltenyi Biotec, Bergisch-Gladbach, Germany) yielding average purities of 87%. 2.6x10^7 purified B cells were injected in 250 μl PBS i.v. into antigen-naïve syngeneic male Lewis rats. To selectively trigger the transferred memory B-cells, recipient rats were immunised after five days with only 12.5 μg GST/β1EC2-FP in adjuvans per animal. Serum was collected for antibody detection just before as well as three and seven days after immunisation.
Fig 5 Immunology of cyclic β1EC2-peptides: fate of β1EC2-specific T- and B-cells. (A) Titer-course of anti-β1EC2-abs in β1EC2-CP-treated rats during the first 6 months of the prevention-study before and 24h after cyclopeptide-injection. Time-points of antigen-boosts are indicated by (red) lines, time-points of CP-injections by (green) arrows. For better readability error-bars are not shown in the graph. (B) Pre-experiments (antigenic recall-assays) performed with CD4^+ T-cells prepared from spleens of GST/β1EC2 fusion-protein (FP)-immunised untreated (n = 3, black) vs. 0.9%NaCl-injected control rats (n = 3, white). […]

As to `CC(C)[C@@H]1NC(=O)[C@H](Cc2ccccc2)NC(=O)[C@H](CC(=O)O)NC(=O)[C@H](CS)NC(=O)[C@H](CS)NC(=O)[C@H](CCCCN)NC(=O)[C@@H]2CCCN2C(=O)[C@H](CC(=O)O)NC(=O)[C@H](CC(N)=O)NC(=O)[C@H](Cc2ccc(O)cc2)NC(=O)[C@H](CS)NC(=O)[C@H](CCCNC(=N)N)NC(=O)[C@H](CCCNC(=N)N)NC(=O)[C@H](C)NC(=O)[C@H](CCC(=O)O)NC(=O)[C@H](CC(=O)O)NC(=O)[C@H](CO)NC(=O)[C@H](CCC(=O)O)NC(=O)[C@H](C)NC(=O)[C@H](CCCNC(=N)N)NC(=O)[C@H](C)NC(=O)[C@H](CCC(N)=O)NC(=O)CNC(=O)[C@H](CCCNC(=N)N)NC(=O)[C@H](CC(N)=O)NC(=O)[C@H]([C@@H](C)O)NC1=O` [β1EC2-CP] (cyclo(AESDEARRCYNDPKCCDFVTNRGQAR)), the “reduction in free anti-β1EC2-abs vs. initial values” in the experiment with anti-β1EC2-antibodies (after 5 injections, ELISA (Fig. 2B)) is on record as more than 80%. Besides, the “anti-β1EC2-titers in % of the initial values” in the experiment on anti-β1EC2-antibodies (after 9–10 injections, despite monthly antigen-boosts (Fig. 2B)) is given as approximately 10%. For the same compound, the “upregulation of GRK2 and GRK5, in words” value with GRK2 and GRK5 was “reverted”. In addition, in experiment [1], the “anti-β1EC2-abs in serum of recipient rats after B-cell transfer, in words” value is “did not induce detectable amounts”.
